According to US10752634B2, “Crystalline forms of a brutons tyrosine kinase inhibitor” (Pharmacyclics LLC, priority 2012, dated 2020):
Values after ≈ are worked out from the molar mass of the structure shown. Read-outs that look alike come from different tables or passages of the source. Each block holds one compound with its values, some of them ahead of it.

Experiments:
OCI-Ly10 = test: Growth inhibition of OCI-Ly10 (ABC-DLBCL) cells; format: cell-based; conditions: Homo sapiens
From the text: See U.S. Pat. No. 7,711,492 and Staudt et al., Nature, Vol. 463, Jan. 7, 2010, pp. 88-92, the contents of which are incorporated by reference in their entirety.

[1] = Thermodynamic aqueous solubility; format: physicochemical
Method: The suspension was equilibrated at 25° C. for 24 hours then the pH was measured. The suspension was then filtered through a glass fibre C filter. The filtrate was then diluted by an appropriate factor e.g. 101. Quantitation was by HPLC with reference to a standard solution of approximately 0.25 mg/ml in DMSO. Different volumes of the standard, diluted and undiluted sample solutions were injected. The solubility was calculated using the peak areas determined by integration of the peak found at the same retention time as the principal peak in the standard injection.
Analysis was performed on an Agilent HP1100 series system equipped with a diode array detector and using ChemStation software vB.02.01-SR1.

[2] = for changes in the XRPD after GVS analysis: after GVS isotherm; for mass change: between 0-90% RH
Method: Sorption isotherms were obtained using a SMS DVS Intrinsic moisture sorption analyser, controlled by DVS Intrinsic Control software v1.0.0.30. The sample temperature was maintained at 25° C. by the instrument controls. […] The weight change, (mass relaxation) of the sample as a function of % RH was constantly monitored by the microbalance (accuracy ±0.005 mg). Typically 5-20 mg of sample was placed in a tared mesh stainless steel basket under ambient conditions. The sample was loaded and unloaded at 40% RH and 25° C. (typical room conditions). A moisture sorption isotherm was performed as outlined below (2 scans giving 1 complete cycle). The standard isotherm was performed at 25° C. at 10% RH intervals over a 0-90% RH range. Data analysis was undertaken in Microsoft Excel using DVS Analysis Suite v6.0.0.7. The sample was recovered after completion of the isotherm and re-analysed by XRPD.

[3] = Solid form stability on storage, by XRPD; format: physicochemical; conditions: for XRPD pattern post storage: stated as property of the form
Method: X-Ray powder diffraction patterns were collected on a Bruker AXS C2 GADDS or Bruker AXS D8 diffractometer.
X-Ray Powder Diffraction patterns were collected on a Bruker AXS C2 GADDS diffractometer using Cu Ka radiation (40 kV, 40 mA), automated XYZ stage, laser video microscope for auto-sample positioning and a HiStar 2-dimensional area detector. X-ray optics consists of a single Göbel multilayer mirror coupled with a pinhole collimator of 0.3 mm A weekly performance check is carried out using a certified standard NIST 1976 Corundum (flat plate). The beam divergence, i.e. the effective size of the X-ray beam on the sample, was approximately 4 mm. A θ-θ continuous scan mode was employed with a sample—detector distance of 20 cm which gives an effective 2θ range of 3.2°-29.7°. Typically the sample would be exposed to the X-ray beam for 120 seconds. The software used for data collection was GADDS for WNT 4.1.16 and the data were analysed and presented using Diffrac Plus EVA v11.0.0.2 or v13.0.0.2.
X-Ray Powder Diffraction patterns were collected on a Bruker D8 diffractometer using Cu Ka radiation (40 kV, 40 mA), θ-2θ goniometer, and divergence of V4 and receiving slits, a Ge monochromator and a Lynxeye detector. The instrument is performance checked using a certified Corundum standard (NIST 1976). The software used for data collection was Diffrac Plus XRD Commander v2.5.0 and the data were analysed and presented using Diffrac Plus EVA v11.0.0.2 or v13.0.0.2. Samples were run under ambient conditions as flat plate specimens using powder as received. The sample was gently packed into a cavity cut into polished, zero-background (510) silicon wafer. The sample was rotated in its own plane during analysis. The details of the data collection are: • Angular range: 2 to 42° 2θ • Step size: 0.05° 2θ • Collection time: 0.5 s/step

EC50 (OCI-Ly10; OCI-Ly10, 1 h, read-out: EC50 1 hour pulse, growth of OCI-Ly10): 50 nM | EC50 (OCI-Ly10; OCI-Ly10, read-out: EC50 continuous exposure, growth of OCI-Ly10): 10 nM
SMILES: C=CC(=O)N1CCC[C@@H](n2nc(-c3ccc(Oc4ccccc4)cc3)c3c(N)ncnc32)C1 [Compound 1, 1-((R)-3-(4-amino-3-(4-phenoxyphenyl)-1H-pyrazolo[3,4-d]pyrimidin-1-yl)piperidin-1-yl)prop-2-en-1-one]

observed aqueous solubility ([1]; about pH 8, stated as property of the form): about 0.013 mg/mL | Solubility in aqueous solution, Conc. Found ([1]; pH 8, 25° C., 24 hours): 13 µg/mL (≈ 29.5 µM) | changes in the XRPD after GVS analysis [2]: No significant changes | mass change ([2]; 25° C.): < 0.3 % w/w | XRPD pattern post storage ([3]; 25° C. and 97% RH for at least a week): substantially the same | XRPD pattern post storage ([3]; 40° C. and 75% RH for at least a week): substantially the same | crystallinity after storage ([3]; one week storage at 25° C./97% RH): unaffected | crystallinity after storage ([3]; one week storage at 40° C./75% RH): unaffected
SMILES: C=CC(=O)N1CCC[C@@H](n2nc(-c3ccc(Oc4ccccc4)cc3)c3c(N)ncnc32)C1 [Form A, 1-((R)-3-(4-amino-3-(4-phenoxyphenyl)-1H-pyrazolo[3,4-d]pyrimidin-1-yl)piperidin-1-yl)prop-2-en-1-one]

hysteresis in GVS ([2]; 0-90% RH, 25° C.): No hysteresis | changes in the XRPD after GVS analysis [2]: No significant changes | mass change ([2]; 25° C.): 2.3 % w/w
SMILES: C=CC(=O)N1CCC[C@@H](n2nc(-c3ccc(Oc4ccccc4)cc3)c3c(N)ncnc32)C1 [Form B, 1-((R)-3-(4-amino-3-(4-phenoxyphenyl)-1H-pyrazolo[3,4-d]pyrimidin-1-yl)piperidin-1-yl)prop-2-en-1-one]

form conversion on standing and drying ([3]; standing at ambient temperature overnight and drying at 40° C. in vacuo for one day): converted to Compound 1, Form A
SMILES: C=CC(=O)N1CCC[C@@H](n2nc(-c3ccc(Oc4ccccc4)cc3)c3c(N)ncnc32)C1 [Form E, 1-((R)-3-(4-amino-3-(4-phenoxyphenyl)-1H-pyrazolo[3,4-d]pyrimidin-1-yl)piperidin-1-yl)prop-2-en-1-one]
